# Where two headings read alike, the source gives them in different places.
# How the values were obtained:
# Isolated Rat Portal Vein = assay: Isolated Rat Portal Vein: inhibition of spontaneous contractile activities; format: cell-based, Male Sprague Dawley rats; settings: for IC50: Rattus norvegicus, 0.25 h; for times more active than Product A: relative to Product A, isolated rat portal vein
# Experimental: Male Sprague Dawley rats (250-300 g) are stunned and then bled after their throats have been cut. The portal vein, ligated in situ at two points 15 mm apart, is isolated, cut longitudinally and then mounted vertically in an experimental cell containing a physiological solution, at 37° C., of the following composition (mmol/l): NaCl:137; KCl: 5.4; MgCl2 : 1.05; CaCl2 : 1.8; NaH2 PO4 : 1.2; NAHCO3 : 15.5; glucose: 11.5, into which a mixture of gases containing 95% of oxygen and 5% of carbon dioxide is bubbled.
# The vein is subjected to a tension of 500 mg. After a period of stabilization (about 1 h 30 min), the spontaneous contractile activities are recorded with the aid of an isometric sensor. Each measurement is performed successively on 4 preparations.
# The results are expressed in the form of the molar concentration which causes a 50 per cent inhibition of the spontaneous contractile activities (IC50).
# mice = assay: Acute toxicity on mice by oral administration; format: in vivo; settings: 1000 mg/kg, 10 mice
# [1] = system: Guinea-pig Papillary Muscle; assay: Guinea-pig Papillary Muscle: ventricular action potential; format: cell-based, Male Albino Charles River guinea-pigs; settings: Cavia porcellus, 0.5 h; 36° C., 60 beats per minute, 30 minutes of perfusion per concentration; read-out: Duration of the action potential: IC50 (50 per cent reduction in the duration of the AP)
# Experimental: Male Albino Charles River guinea-pigs (300-400 g) are stunned and then bled after their throats have been cut. The heart is isolated and opened and the right papillary muscle is excised and then kept alive in an experimental cell containing a physiological solution at 36° C. (composition described above).
# The preparation is stimulated with the aid of a bipolar electrode connected to a stimulator (frequency=60 beats per minute). The ventricular action potential is measured by the conventional microelectrode method. The characteristic parameters were measured on the action potentials (AP) before and after the introduction of the test product at 3 successive increasing concentrations (30 minutes of perfusion per concentration). The concentration which produces a 50 per cent reduction in the duration of the AP is indicated (IC50).
# [2] = system: Vigilant Spontaneously Hypertensive Rats (SHR); assay: Antihypertensive Activity on Vigilant Spontaneously Hypertensive Rats (SHR); format: in vivo, male SHR (of the Wistar strain) rats; settings: for duration of action compared with Product A: p.o.
# Experimental: The experiment is performed on male SHR (of the Wistar strain) aged between 11 and 12 weeks; under pentobarbital anesthesia, a catheter is implanted in a carotid artery on the day before the experiment. In the experiment, the diastolic pressure (DP) and systolic pressure (SP) of the vigilant animals are recorded continuously 1 hour before and up to 2 hours after administration of the product. The heart rate (HR) is determined from the pulse pressure and recorded continuously for the same time.
# The products were administered orally in a volume of 2 ml per 100 g of body weight after suspension in a 5% aqueous solution of gum arabic.
# Vigilant Dogs = assay: Antiarrhythmic Activity on Vigilant Dogs; format: in vivo; settings: orally
# Experimental: The method used is that described by Dupuis et al. (Br. J. Pharmacol., 1976, 58, p. 409), in which an acute infarction is caused by the insertion of a copper spiral into the coronary circulation, with the thorax closed off. The electrocardiogram is measured by telemetry and the extrasystoles are analyzed and counted automatically while the animal is being monitored by an internal television circuit. The products were administered orally to animals presenting at least 50 percent of extrasystoles.
# [3] = 37° C., 15 min per concentration, read-out: IC50 of the spontaneous contractile activities of isolated rat portal vein
# [4] = unit inferred, read-out: IC50 values equal to or less than (isolated rat portal vein)
Structure (SMILES),IC50 (Isolated Rat Portal Vein; [3]) [µM],IC50 [1] [µM],Maximum decrease in mean blood pressure (±s.e.) ([2]; 0.03 mg/kg p.o.),Maximum decrease in mean blood pressure (±s.e.) ([2]; 0.10 mg/kg p.o.),IC50 (Isolated Rat Portal Vein; [4]) [µM],times more active than Product A (Isolated Rat Portal Vein),also measured
"CC1(C)Oc2ccc(C#N)cc2[C@@H](N2CCCC2=O)[C@@H]1O (relative stereo) [Product A, trans-6-Cyano-4-(2-oxopyrrolidin-1-yl)-2,2-dimethylchroman-3-ol, reference compound]",0.068,16,16 ± 5 mm of mercury,30 ± 10 mm of mercury,,,acute toxicity: survival / death of the animals (mice): all 10 animals died
"CC1(C)Oc2ccc(C#N)cc2[C@@H](n2ccc(F)cc2=O)[C@@H]1O (relative stereo) [SR 45 311, trans-6-Cyano-4-(1,2-dihydro-4-fluoro-2-oxopyrid-1-yl)-2,2-dimethylchroman-3-ol]",0.05,,,,,,
"Cc1cc(O)nn([C@@H]2c3cc(C#N)ccc3OC(C)(C)[C@H]2O)c1=O (relative stereo) [SR 45 209, trans-6-Cyano-4-(I,6-dihydro-3-hydroxy-5-methyl-6-oxopyridazin-1-yl)-2,2-dimethylchroman-3-ol]",0.058,,,,,,
CC1(C)Oc2ccc(C#N)cc2[C@@H](n2ccc(Cl)cc2=O)[C@@H]1O (relative stereo) [SR 45 012],0.026,,,,≤ 0.034,at least 5 times,
CC1(C)Oc2ccc(C#N)cc2[C@@H](n2ccncc2=O)[C@@H]1O (relative stereo) [SR 45 067],0.077,,,,,,
Cc1ccn([C@@H]2c3cc(C#N)ccc3OC(C)(C)[C@H]2O)c(=O)c1 (relative stereo) [SR 45 135],0.08,,,,,,
"CC1(C)Oc2ccc(C#N)cc2[C@@H](n2ncccc2=O)[C@@H]1O (relative stereo) [SR 44 758, trans-6-Cyano-4-(1,6-dihydro-6-oxopyridazin-1-yl)-2,2-dimethylchroman-3-ol]",0.13,,12 ± 2 mm of mercury,33 ± 5 mm of mercury,,,
"CC1(C)Oc2ccc(C#N)cc2[C@@H](n2ccccc2=O)[C@@H]1O (relative stereo) [SR 44 709, trans-6-Cyano-4-(I,2-dihydro-2-oxopyrid-1-yl)2,2-dimethylchroman-3-ol]",0.09,20,,39 ± 12 mm of mercury,,,acute toxicity: survival / death of the animals (mice): all the animals survived; antiarrhythmic activity (reducing the number of extrasystoles or restoring a sinus rhythm) (Vigilant Dogs; 1 mg/kg): substantial antiarrhythmic activity; Maximum decrease in mean blood pressure (±s.e.) ([2]; 0.06 mg/kg p.o.): 21 ± 5 mm of mercury
"CC1(C)Oc2ccc(C#N)cc2[C@@H](n2ccc(O)cc2=O)[C@@H]1O (relative stereo) [SR 44 793, trans-6-Cyano-4-(I,2-dihydro-4-hydroxy-2-oxopyrid-1-yl)-2,2-dimethylchroman-3-ol]",0.034,2.7,22 ± 2 mm of mercury,50 ± 9 mm of mercury,≤ 0.034,at least 5 times,antiarrhythmic activity (reducing the number of extrasystoles or restoring a sinus rhythm) (Vigilant Dogs; between 0.1 and 0.5 mg/kg): substantial antiarrhythmic activity; Maximum decrease in mean blood pressure (±s.e.) ([2]; 0.06 mg/kg p.o.): 26 ± 3 mm of mercury; duration of action compared with Product A [2]: longer duration of action than Product A
"CC1(C)Oc2ccc(C#N)cc2[C@@H](n2nc(O)ccc2=O)[C@@H]1O (relative stereo) [SR 44 994, trans-6-Cyano-4-(I,6-dihydro-3-hydroxy-6-oxopyridazin-1-yl)-2,2-dimethylchroman-3-ol]",0.009,4,14 ± 0 mm of mercury,37 ± 4 mm of mercury,≤ 0.034,at least 5 times,duration of action compared with Product A [2]: longer duration of action than Product A
"Cc1cc(=O)n([C@@H]2c3cc(C#N)ccc3OC(C)(C)[C@H]2O)nc1O (relative stereo) [SR 45 218, trans-6-Cyano-4-(I,6-dihydro-3-hydroxy-4-methyl-6-oxopyridazin-1-yl)-2,2-dimethylchroman-3-ol]",0.02,,,,≤ 0.034,at least 5 times,
"Cc1ccc(=O)n([C@@H]2c3cc(C#N)ccc3OC(C)(C)[C@H]2O)n1 (relative stereo) [SR 45 225, trans-6-Cyano-4-(I,6-dihydro-3-methyl-6-oxopyridazin-1-yl)-2,2-dimethylchroman-3-ol]",0.088,,,,,,

# Reference: patent publication US5284838A, “Use of 2,2-dimethylchroman-3-ol derivatives in the treatment of asthma” (Elf Sanofi, priority 1987, dated 1994)
